Common to all, as to assay: growth of human tumour cells (NCI), 48 h
For experiment [1], the system named is EKVX NSCLC.
Experiment [2] has as its system MOLT-4 leukemia.
The subject of experiment [3] is IGROV1 ovarian.
Experiment [4] deals with 786-0 renal.
The test system of experiment [5] is NCI-H23 lung.
Experiment [6] relates to T-47D breast.
The test system of experiment [7] is SK-MEL-28 melanoma.
Experiment [8] relates to OVCAR-4 ovarian.
Experiment [9] concerns MCF7 breast.
Experiment [10] concerns NCI-H460 lung.

This passage reports GI50 and TGI results from PubChem BioAssay (NCI).

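Exposure lasted 48 hours, with cells grown in 96-well plates and compounds tested at five concentrations. Abbreviation: GI50, concentration required for 50% inhibition of growth. TGI denotes the concentration required for complete inhibition of growth.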

For the compound `O=C(Nc1cnc(C(F)(F)F)cn1)c1cc(Cl)ccc1O`, the GI50 in experiment [1] is 0.228 µM; in experiment [2] it was 0.352 µM; in experiment [3], 0.374 µM; in experiment [4], 0.356 µM; in experiment [5], 0.257 µM; in experiment [6] it was 0.238 µM. The GI50 in experiment [7] was 0.257 µM; in experiment [8] it was 0.254 µM; in [9] it was 0.29 µM; in experiment [10], 0.332 µM. Besides, the TGI in experiment [2] is 1.78 µM; in experiment [3] it was > 100 µM; in experiment [4] it was 15.9 µM; in experiment [5], 1.22 µM; in [6], 0.851 µM; in [7], 2.2 µM. For the same compound, the TGI was > 100 µM in experiment [8], > 100 µM in experiment [9] and 15.2 µM in [10].

For `CCOC(=O)C1=C(C)N2C(=NC3=C(CCC/C3=C\c3ccc(Cl)cc3)C2c2ccc(Cl)cc2)S1` (centres undefined), the GI50 in experiment [1] is 3.37 µM; in experiment [2], 3.06 µM; in experiment [3], 3.11 µM; in experiment [4] it was 2 µM; in [5], 2.03 µM; in experiment [6] it was 3.61 µM. The GI50 in [7] was 3.07 µM; in experiment [8], 2.85 µM; in experiment [9], 2.44 µM; in experiment [10], 4.04 µM. In addition, the TGI in [1] was found to be 46.8 µM; in experiment [2], 9.27 µM; in experiment [3], 10.1 µM; in experiment [4], 4.74 µM; in experiment [5], 5.26 µM; in experiment [6] it was 28.3 µM. Besides, the TGI in experiment [7] was determined as 11.4 µM; in [8], 19.2 µM; in experiment [9], 11 µM; in experiment [10] it was 19.4 µM.

Consider `CN(c1ccc(C#N)c(Cl)c1)C1CCC(NC(=O)c2ccc(N3CCN(C4CN(c5ccc6c(c5)C(=O)N(C5CCC(=O)NC5=O)C6=O)C4)CC3)cc2)CC1` (centres undefined), for which the GI50 in [1], in [2], in experiment [3], in experiment [4], in [5] and in experiment [6] was > 100 µM each time. For the same compound, the GI50 in [7], in [8], in experiment [9] and in experiment [10] was > 100 µM in each case. Further, the TGI in [1], in [2], in experiment [3], in [4], in [5] and in [6] was > 100 µM throughout. Further, the TGI in experiment [7], in experiment [8], in experiment [9] and in experiment [10] was > 100 µM each time.

As to `Cc1cccc2c(Nc3ccc(NS(C)(=O)=O)cc3)c3ccc([N+](=O)[O-])cc3nc12`, the GI50 in experiment [2] was 0.3 µM; in experiment [3] it was 0.954 µM; in experiment [4], 0.738 µM; in experiment [5], 1.25 µM; in experiment [6], 0.147 µM; in [7], 1.51 µM. In addition, the GI50 in [8] was 1.9 µM; in experiment [9], 0.0382 µM; in [10], 0.0234 µM. Besides, the TGI in [2] worked out at 6.09 µM; in experiment [3], 3.65 µM; in experiment [4], 4.45 µM; in experiment [5], 4.31 µM; in [6] it was 9.32 µM; in experiment [7] it was 4.38 µM. Also, the TGI in experiment [8] was 6.38 µM; in experiment [9], 3.58 µM; in [10], 1.76 µM.

In the case of `O=C1c2ccccc2C(=O)N1C1(C(=O)NC2(C(=O)O)CCCC2)CCCC1`, the TGI in experiment [1], in [2], in [3], in [4], in experiment [5] and in experiment [6] was > 100 µM in each case. The TGI in experiment [7], in experiment [8] and in [9] was > 100 µM throughout.

`COc1ccc(-c2ccc(/C=N/n3c(COc4ccccc4Cl)n[nH]c3=S)o2)c([N+](=O)[O-])c1`: the GI50 in [3] is 52.7 µM; in [4], 28.4 µM; in [5], 18.5 µM; in [6], 21.8 µM; in experiment [7], 55 µM; in experiment [8], 45.4 µM. The figures for the GI50 in experiment [9] and in experiment [10] were 18.7 µM and 23.7 µM, respectively. Besides, the TGI is > 100 µM in experiment [3]; > 100 µM in experiment [4]; 41.8 µM in [5]; 86.2 µM in experiment [6]; > 100 µM in [7]; > 100 µM in [8]. The results for the TGI in [9] and in experiment [10] were 40.5 µM and 52.7 µM, respectively.

For the compound `OCc1ccc(N2CCCC2)cc1Cl`, the GI50 in experiment [2] was 36.9 µM; in [3], 0.452 µM; in [4], 27.5 µM; in experiment [5], 27.5 µM; in experiment [6], 0.538 µM; in experiment [7] it was > 100 µM. The GI50 is 1.83 µM in experiment [8], 1.95 µM in [9] and 3.55 µM in experiment [10]. Moreover, the TGI was > 100 µM in [2]; 2 µM in experiment [3]; > 100 µM in [4]; > 100 µM in [5]; 2.88 µM in experiment [6]; > 100 µM in experiment [7]. For the same compound, the TGI is 12.3 µM in experiment [8], > 61.9 µM in experiment [9] and 28.5 µM in experiment [10].

With `CN1CCN(c2cc3nc4ccccc4n(-c4ccc(Cl)cc4)c-3cc2=N)CC1`, the GI50 is 30 µM in experiment [1]; 12.8 µM in [2]; 17.2 µM in experiment [3]; 31.4 µM in [4]; 15.9 µM in [5]; > 100 µM in [6]. Further, the GI50 was 35.6 µM in experiment [9] and 39.6 µM in experiment [10]. In addition, the TGI in [1] was > 100 µM; in experiment [2] it was 32 µM; in experiment [3], 53.5 µM; in [4], > 100 µM; in experiment [5], 32.9 µM; in [6] it was > 100 µM. Also, the TGI in experiment [9] and in [10] was > 100 µM in each case.

As for `COc1ccc2c(c1)C(=O)c1c-2c(N2CCNCC2)nc2ccccc12`, the GI50 in [1] was 4.65 µM; in experiment [2], 0.688 µM; in [3] it was 2.37 µM; in experiment [4] it was 3.17 µM; in experiment [6], 1.96 µM; in experiment [7], 1.85 µM. For the same compound, the GI50 in [8] is 9.93 µM; in experiment [9] it was 1.28 µM; in experiment [10] it was 0.614 µM. The TGI in [1] amounted to 17.5 µM; in [2], 3.03 µM; in experiment [3], 8.7 µM; in experiment [4] it was 13.3 µM; in experiment [6] it was 4.41 µM; in experiment [7], 3.46 µM. Moreover, the TGI in [8] is 27.1 µM; in [9] it was 2.58 µM; in [10] it was 1.98 µM.
